# Test results: patent publication US20260297118A1, “SUBSTITUTED PYRIMIDINONE AND AZAPYRIMIDINONE COMPOUNDS, COMPOSITIONS, AND USES THEREOF” (LAKEWOOD AMEDEX, INC., priority 2023, published 2026)
# Legend:
# Assay type in all cases: cell-based
# [1] = tested on: Pseudomonas aeruginosa (27853); assay: MIC, broth microdilution, Pseudomonas aeruginosa (27853); settings: pH 3, Mueller Hinton Broth, 18 to 24 hours, read-out: MIC
# Procedure: (§1) MIC testing is conducted using the broth (Mueller Hinton Broth) microdilution procedures relevant to each organism group as established by the Clinical and Laboratory Standards Institute (CLSI; 3-7). MIC plates are prepared in accordance with CLSI (3-7). To prepare the test plates, automated liquid handlers are used to conduct serial dilutions and liquid transfers. Automated liquid handlers utilized in this study include the Multidrop 384 (Labsystems, Helsinki, Finland) and the Biomek 2000 (Beckman Coulter, Fullerton CA). The solution is diluted to desired pH using 1 M Citric Acid or 1 M NaOH buffer. A standardized inoculum of each test organism is prepared per CLSI methods (3, 5-7) to equal a 0.5 McFarland standard in the appropriate media followed by an additional 1:20 dilution (1:10 for anaerobes).
# (§2) The plates are then inoculated with 10 μL of the diluted 0.5 McFarland suspension using the Biomek 2000 from low to high drug concentration, resulting in a final concentration of approximately 5×10^5 CFU/mL per well. An un-inoculated plate is incubated for the purpose of assessing solubility of the drug in the test media. The plates are stacked 3 to 4 high, covered with a sterile lid on the top plate, and incubated for 18 to 24 hours according to CLSI. The MIC is recorded as the lowest concentration of respective compound that inhibited visible growth of the organism.
# Escherichia coli (25922) = assay: MIC, broth microdilution, Escherichia coli (25922); settings: pH 3, Mueller Hinton Broth, 18 to 24 hours, read-out: MIC
# Procedure: as §1, §2
# Candida albicans (22972) = assay: MIC, broth microdilution, Candida albicans (22972); settings: pH 3, Mueller Hinton Broth, 18 to 24 hours, read-out: MIC
# Procedure: as §1, §2
# [2] = tested on: Staphylococcus aureus (43330); assay: MIC, broth microdilution, Staphylococcus aureus (43330); settings: pH 3, Mueller Hinton Broth, 18 to 24 hours, read-out: MIC
# Procedure: as §1, §2
# [3] = tested on: S. dysgalactiae ATCC-6644; assay: MIC, broth microdilution, S. dysgalactiae ATCC-6644; parameters: unit not given beside the values; settings: S. dysgalactiae ATCC-6644, Gram +ve; pH 3; 18 to 24 hours
# Procedure: as §1, §2
# C. striatum ATCC-6940 = assay: MIC, broth microdilution, C. striatum ATCC-6940; settings: C. striatum ATCC-6940, Gram +ve; pH 3; 18 to 24 hours
# Procedure: as §1, §2
# K. pneumoniae ATCC-43816 = assay: MIC, broth microdilution, K. pneumoniae ATCC-43816; parameters: unit not given beside the values; settings: K. pneumoniae ATCC-43816, Gram −ve; pH 3; 18 to 24 hours
# Procedure: as §1, §2
# A. baumannii ATCC-19606 = assay: MIC, broth microdilution, A. baumannii ATCC-19606; parameters: unit not given beside the values; settings: A. baumannii ATCC-19606, Gram −ve; pH 3; 18 to 24 hours
# Procedure: as §1, §2
# E. coli ATCC-25922 = assay: MIC, broth microdilution, E. coli ATCC-25922; parameters: unit not given beside the values; settings: E. coli ATCC-25922, Gram −ve; pH 3; 18 to 24 hours
# Procedure: as §1, §2
# S. aureus ATCC-29213 = assay: MIC, broth microdilution, S. aureus ATCC-29213; parameters: unit not given beside the values; settings: S. aureus ATCC-29213, Gram +ve; pH 3; 18 to 24 hours
# Procedure: as §1, §2
# E. coli MMX-8870 = assay: MIC, broth microdilution, E. coli MMX-8870; settings: E. coli MMX-8870, Gram −ve; pH 3; 18 to 24 hours
# Procedure: as §1, §2
# [4] = tested on: A. radioresistens MMX-8551; assay: MIC, broth microdilution, A. radioresistens MMX-8551; parameters: unit not given beside the values; settings: A. radioresistens MMX-8551, Gram −ve; pH 3; 18 to 24 hours
# Procedure: as §1, §2
# S. aureus ATCC -3591 = assay: MIC, broth microdilution, S. aureus ATCC -3591; parameters: unit not given beside the values; settings: S. aureus ATCC -3591, Gram +ve; pH 3; 18 to 24 hours
# Procedure: as §1, §2
# E. faecium ATCC-35667 = assay: MIC, broth microdilution, E. faecium ATCC-35667; settings: E. faecium ATCC-35667, Gram +ve; pH 3; 18 to 24 hours
# Procedure: as §1, §2
# [5] = tested on: S. haemolyticus ATCC-29970; assay: MIC, broth microdilution, S. haemolyticus ATCC-29970; settings: S. haemolyticus ATCC-29970, Gram +ve; pH 3; 18 to 24 hours
# Procedure: as §1, §2
# E. faecalis ATCC-29212 = assay: MIC, broth microdilution, E. faecalis ATCC-29212; parameters: unit not given beside the values; settings: E. faecalis ATCC-29212, Gram +ve; pH 3; 18 to 24 hours
# Procedure: as §1, §2
# H. influenzae ATCC-49247 = assay: MIC, broth microdilution, H. influenzae ATCC-49247; parameters: unit not given beside the values; settings: H. influenzae ATCC-49247, Gram −ve; pH 3; 18 to 24 hours
# Procedure: as §1, §2
# E. faecalis MMX-3353 = assay: MIC, broth microdilution, E. faecalis MMX-3353; settings: E. faecalis MMX-3353, Gram +ve; pH 3; 18 to 24 hours
# Procedure: as §1, §2
# P. aeruginosa ATCC-27853 = assay: MIC, broth microdilution, P. aeruginosa ATCC-27853; parameters: unit not given beside the values; settings: P. aeruginosa ATCC-27853, Gram −ve; pH 3; 18 to 24 hours
# Procedure: as §1, §2
# E. cloacae ATCC BAA-2468 = assay: MIC, broth microdilution, E. cloacae ATCC BAA-2468; parameters: unit not given beside the values; settings: E. cloacae ATCC BAA-2468, Gram −ve; pH 3; 18 to 24 hours
# Procedure: as §1, §2
# M. morganii CDC-0519 = assay: MIC, broth microdilution, M. morganii CDC-0519; parameters: unit not given beside the values; settings: M. morganii CDC-0519, Gram −ve; pH 3; 18 to 24 hours
# Procedure: as §1, §2
# [6] = tested on: S. saprophyticus ATCC-49907; assay: MIC, broth microdilution, S. saprophyticus ATCC-49907; parameters: unit not given beside the values; settings: S. saprophyticus ATCC-49907, Gram +ve; pH 3; 18 to 24 hours
# Procedure: as §1, §2
# S. agalactiae ATCC-13813 = assay: MIC, broth microdilution, S. agalactiae ATCC-13813; parameters: unit not given beside the values; settings: S. agalactiae ATCC-13813, Gram +ve; pH 3; 18 to 24 hours
# Procedure: as §1, §2
# P. mirabilis CDC-0155 = assay: MIC, broth microdilution, P. mirabilis CDC-0155; parameters: unit not given beside the values; settings: P. mirabilis CDC-0155, Gram −ve; pH 3; 18 to 24 hours
# Procedure: as §1, §2
# S. pyogenes ATCC-49399 = assay: MIC, broth microdilution, S. pyogenes ATCC-49399; parameters: unit not given beside the values; settings: S. pyogenes ATCC-49399, Gram +ve; pH 3; 18 to 24 hours
# Procedure: as §1, §2
# E. faecium MMX-3355 = assay: MIC, broth microdilution, E. faecium MMX-3355; parameters: unit not given beside the values; settings: E. faecium MMX-3355, Gram +ve; pH 3; 18 to 24 hours
# Procedure: as §1, §2
# [7] = tested on: K. pneumoniae ATCC BAA-2146; assay: MIC, broth microdilution, K. pneumoniae ATCC BAA-2146; parameters: unit not given beside the values; settings: K. pneumoniae ATCC BAA-2146, Gram −ve; pH 3; 18 to 24 hours
# Procedure: as §1, §2
# C. freundii CDC-0157 = assay: MIC, broth microdilution, C. freundii CDC-0157; parameters: unit not given beside the values; settings: C. freundii CDC-0157, Gram −ve; pH 3; 18 to 24 hours
# Procedure: as §1, §2
smiles,measurement,setting,value
"CCCCCCCCOP(=O)(O)OC[C@H]1O[C@@H](n2ccc(N)nc2=O)C[C@@H]1O [LAI-001, ((2R,3S,5R)-5-(4-amino-2-oxopyrimidin-1(2H)-yl)-3-hydroxytetrahydrofuran-2-yl)methyl octyl hydrogen phosphate]",MIC,[1],20 mg/mL
same,MIC,Escherichia coli (25922),20 mg/mL
same,MIC,Candida albicans (22972),20 mg/mL
same,MIC,[2],20 mg/mL
"CCCCCCOP(=O)(O)OC[C@H]1O[C@@H](n2ccc(N)nc2=O)C[C@@H]1O [LAI-002, ((2R,3S,5R)-5-(4-amino-2-oxopyrimidin-1(2H)-yl)-3-hydroxytetrahydrofuran-2-yl)methyl hexyl hydrogen phosphate]",MIC,[1],5 mg/mL
same,MIC,Escherichia coli (25922),25 mg/mL
same,MIC,Candida albicans (22972),50 mg/mL
same,MIC,[2],25 mg/mL
"CCCCOP(=O)(O)OC[C@H]1O[C@@H](n2ccc(NC)nc2=O)C[C@@H]1O [LAI-009, butyl (((2R,3S,5R)-3-hydroxy-5-(4-(N-methylamino)-2-oxopyrimidin-1(2H)-yl)tetrahydrofuran-2-yl)methyl) hydrogen phosphate]",MIC,[1],5 mg/mL
same,MIC,Escherichia coli (25922),25 mg/mL
same,MIC,Candida albicans (22972),50 mg/mL
same,MIC,[2],25 mg/mL
"CCCCOP(=O)(O)OC[C@H]1O[C@@H](n2ccc(N(C)C)nc2=O)[C@H](OC)[C@@H]1O [LAK-021, (2R,3S,4R,5R)-5-(4-N,N-dimethylamino-2-oxopyrimidin-1(2H)-yl)-3-hydroxy-4-methoxy-tetrahydrofuran-2-methyl butyl phosphate]",MIC,[3],0.78
same,MIC,C. striatum ATCC-6940,0.78
same,MIC,K. pneumoniae ATCC-43816,1.56
same,MIC,A. baumannii ATCC-19606,1.56
same,MIC,E. coli ATCC-25922,0.78
same,MIC,S. aureus ATCC-29213,3.13
same,MIC,E. coli MMX-8870,1.56
same,MIC,[4],1.56
same,MIC,S. aureus ATCC -3591,6.25
same,MIC,E. faecium ATCC-35667,3.13
same,MIC,[5],3.13
same,MIC,E. faecalis ATCC-29212,3.13
same,MIC,H. influenzae ATCC-49247,0.39
same,MIC,[1],0.8 mg/mL
same,MIC,E. faecalis MMX-3353,3.13
same,MIC,P. aeruginosa ATCC-27853,0.78
same,MIC,E. cloacae ATCC BAA-2468,1.56
same,MIC,Escherichia coli (25922),1.25 mg/mL
same,MIC,M. morganii CDC-0519,1.56
same,MIC,Candida albicans (22972),> 50 mg/mL
same,MIC,[6],1.56
same,MIC,S. agalactiae ATCC-13813,0.78
same,MIC,[2],4.5 mg/mL
same,MIC,P. mirabilis CDC-0155,1.56
same,MIC,S. pyogenes ATCC-49399,0.78
same,MIC,E. faecium MMX-3355,3.13
same,MIC,[7],1.56
same,MIC,C. freundii CDC-0157,1.56
